Entries after “also recorded” stand apart in the source; their conditions may differ. Where two headings read alike, the source gives them in different places.
Molecular target: T1, TbSir2rp1 (Trypanosoma brucei brucei, UniProt Q57V41)
T1 construct: The TbSir2rp1 gene was cloned into the pET24(+) expression plasmid (Novagen); His tag; made in house; host or cells: Escherichia coli BL21-Codon Plus (DE3)-RIL
T1 sequence (Q57V41 1-351): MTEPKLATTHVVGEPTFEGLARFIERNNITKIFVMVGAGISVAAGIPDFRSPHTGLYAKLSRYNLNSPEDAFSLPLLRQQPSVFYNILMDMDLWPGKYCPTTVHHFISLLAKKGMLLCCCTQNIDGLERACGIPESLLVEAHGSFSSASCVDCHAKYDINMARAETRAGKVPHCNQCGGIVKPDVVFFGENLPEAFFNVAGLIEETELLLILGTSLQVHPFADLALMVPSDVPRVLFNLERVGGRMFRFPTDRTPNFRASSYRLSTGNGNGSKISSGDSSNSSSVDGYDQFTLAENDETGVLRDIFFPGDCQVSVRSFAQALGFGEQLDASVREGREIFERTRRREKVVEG
Experiment: biochemical
Details: for ligand efficiency (LE): LE = –R·T·ln(IC50)/HAC, from TbSir2rp1 IC50; for Hill coefficient (nH): concentration–response curve against TbSir2rp1; for IC50: enzyme 1 μM, NAD+ 100 μM, acetylated peptide 50 μM, 37 °C, 2 h
Procedure: The acetylated peptide corresponds to the sequence Abz-Gly-Pro-acetylLys-SerGln–EDDnp, where Abz is ortho-aminobenzoic acid and EDDnp is N-[2,4-dinitrophenyl]ethylenediamine.
To halt the deacetylation reaction, 4 mM nicotinamide was used. For each pair of wells in the 96-well plate, 0.2 mg/mL of trypsin was added to only one well to hydrolyze the acetylated peptide, enabling fluorescence emission. Fluorescence was measured immediately at 420 nm with excitation at 320 nm using a SpectraMax M2 microplate reader (Molecular Devices).
Deacetylation activity was determined by the difference between the well where trypsin was added and the well without trypsin. All assays were performed in triplicate, and activity values were reported as means ± standard deviations with outliers identified and excluded from the calculations. Statistical analyses were conducted using Prism 7 software (GraphPad).
The screening of the 90 fragments was performed at a single concentration of 500 μM in triplicate. The enzyme was used at 1 μM, and the substrates NAD^+ and acetylated peptide were used at 100 and 50 μM, respectively. Incubation was carried out at 37.0 °C for 2 h. Each fragment was added to a pair of wells, with trypsin being added to only one well, as previously described for inhibitory activity calculation. […] Ligand efficiency (LE) was calculated as LE = –R·T·ln(IC50)/HAC using IC50 values instead of KD for comparison. […] The inhibition mechanism was characterized using Lineweaver–Burk plots under five concentrations of each substrate and three concentrations of the fragment. IC50 values were determined with at least seven different concentrations, and Lineweaver–Burk analysis used six concentrations.

[1] = read-out: % Inhibition TbSir2rp1, Table S2, complete fragment library, single concentration of 500 μM
[2] = read-out: % Inhibition TbSir2rp1 at 500 μM, Table 1, fragment 500 μM, triplicate, mean ± SD

Structure (SMILES)	inhibition at 500 µM [1]	other results
CCOC1NN=C(c2ccccc2)N1 (centres unmarked) [CCOC1NC(C2=CC=CC=C2)=NN1]	-3.3 ± 1.9%	
Sc1nnc(Cc2ccccc2)s1 [SC1=NN=C(CC2=CC=CC=C2)S1]	9.4 ± 1%	
c1ccc(C2CN3CCSC3=N2)cc1 (centres unmarked) [C12=NC(C3=CC=CC=C3)CN1CCS2]	10 ± 1.4%	
CCc1[nH][nH]c(=O)c1-c1cccnc1O [Fragment 3]	88 ± 14%	ligand efficiency (LE): 0.37; Hill coefficient (nH): 1.77; inhibition at 500 µM [2]: 88.3 ± 14.2%
C1CN2CCN1CC2 [N1(CC2)CCN2CC1]	2.7 ± 2.6%	
CC(C)(Oc1ccc(C2CC2(Cl)Cl)cc1)C(=O)O (centres unmarked) [CC(C)(OC1=CC=C(C2C(Cl)(Cl)C2)C=C1)C(O)=O]	4.9 ± 4.7%	
CCOC(=O)c1c(C)oc2ncccc12 [CC1=C(C(OCC)=O)C2=C(O1)N=CC=C2]	-29 ± 12%	
N/C(=N/c1ccccc1)Nc1ccccc1 [N/C(NC1=CC=CC=C1)=N/C2=CC=CC=C2]	2.6 ± 1.1%	
Cc1cn([C@H]2C[C@H](N=[N+]=[N-])[C@@H](CO)O2)c(=O)[nH]c1=O	8.2 ± 1.4%	
NNS(=O)(=O)c1ccc(Cl)cc1 [NNS(=O)(C1=CC=C(Cl)C=C1)=O]	37 ± 24%	
COc1cc(C)c(NC(C)=O)cn1 [COC1=NC=C(NC(C)=O)C(C)=C1]	1.6 ± 13%	
CC(C)NCC1CCc2cc(CO)c([N+](=O)[O-])cc2N1 (centres unmarked)		inhibition at 500 µM (read-out: % Inhibition TbSir2rp1): 24 ± 7.9%
Cc1oc2ncccc2c1C(=O)O [CC1=C(C(O)=O)C2=C(O1)N=CC=C2]	19 ± 17%	
O=C1Cc2cnccc2CN1 [Fragment 8]	55 ± 4.8%	inhibition at 500 µM [2]: 55.5 ± 4.8%
O=C(NNc1ccccc1)NNc1ccccc1 [O=C(NNC1=CC=CC=C1)NNC2=CC=CC=C2]	48 ± 1.8%	
NNC(=O)c1ccncc1 [O=C(C1=CC=NC=C1)NN]	-4.9 ± 2.4%	
CCn1cc(C(=O)O)c(=O)c2ccc(C)nc21 [O=C(C1=CN(CC)C2=C(C=CC(C)=N2)C1=O)O]	-6.5 ± 2.2%	
Sc1nc2ccccc2s1 [Fragment 1.3]		IC50 (IC50, TbSir2rp1): 125 µM; ligand efficiency (LE): 0.54; Hill coefficient (nH): 1.04
NC(=O)c1ncn([C@@H]2O[C@H](CO)[C@@H](O)[C@H]2O)n1	-11 ± 11%	
COc1cc2cn[nH]c2cn1 [COC1=NC=C(NN=C2)C2=C1]	56 ± 15%	
CCOC(=O)c1c(C)oc2c1ccc[n+]2[O-] [CC1=C(C(OCC)=O)C2=C(O1)[N+]([O-])=CC=C2]	-2.9 ± 10%	
O=S(=O)(c1ccc(Cl)cc1)c1ccc(Cl)cc1 [ClC1=CC=C(S(C2=CC=C(Cl)C=C2)(=O)=O)C=C1]	44 ± 12%	
O=C(O)c1ccccc1O [O=C(O)C1=CC=CC=C1O]	-10 ± 1.7%	

Structure (SMILES)	inhibition at 500 µM [1]	other results
NC(N)=NS(=O)(=O)c1ccc(N)cc1 [N/C(N)=N\S(=O)(C1=CC=C(N)C=C1)=O]	1.8 ± 1.9%	
CS(=O)(=O)Nc1cccc(-c2ccccc2)c1 [CS(NC1=CC=CC(C2=CC=CC=C2)=C1)(=O)=O]	35 ± 3.7%	
O=c1ccc2ccccc2[nH]1 [Fragment 6]	60 ± 5.5%	ligand efficiency (LE): 0.41; Hill coefficient (nH): 1.19; inhibition at 500 µM [2]: 59.7 ± 5.5%
CC(C)[C@@H]1CC[C@@H](C)CC1O (some centres unmarked) [OC1[C@H](C(C)C)CC[C@@H](C)C1]	22 ± 5%	
CN1C(=O)CN=C(c2ccccc2)c2cc(Cl)ccc21	37 ± 2.2%	
CCOc1ccc2nc(N)sc2c1 [Fragment 1.4]		inhibition of TbSir2rp1 (in words): did not inhibit; also recorded: No inhibition
Nc1ccc(Nc2ccccc2)cc1 [Fragment 1.5]		IC50 (TbSir2rp1, read-out: IC50): > 500 µM
C(=N\c1nncs1)/c1ccc(Sc2ccccc2)cc1	38 ± 1.7%	
O=C1CCSc2nc(-c3ccccc3)nn21 [O=C1CCSC2=NC(C3=CC=CC=C3)=NN21]	3 ± 1.7%	
N=C(N)N/N=C/c1cccs1 [Fragment 10]	56 ± 4.9%	inhibition at 500 µM [2]: 55.7 ± 4.9%
Cc1ccc(S(=O)(=O)n2cccn2)cc1 [CC1=CC=C(S(N2N=CC=C2)(=O)=O)C=C1]	8.4 ± 20%	
Nc1nnc(-c2ccccc2)o1 [NC1=NN=C(O1)C2=CC=CC=C2]	16 ± 0.61%	
CC(=O)NCCN1C(=O)CNC1=O [O=C(CN1)N(CCNC(C)=O)C1=O]	5.8 ± 3.4%	
Cn1cnc2c1c(=O)[nH]c(=O)n2C [O=C(N1)N(C)C2=C(N(C)C=N2)C1=O]	17 ± 4.4%	
Cn1c(=O)c2[nH]cnc2n(C)c1=O [O=C(N1C)N(C)C2=C(NC=N2)C1=O]	-2.1 ± 3%	
Nc1cccc([N+](=O)[O-])c1 [NC1=CC=CC([N+]([O-])=O)=C1]	27 ± 0.91%	
CCOc1ccc(NC(C)=O)cc1 [CC(NC1=CC=C(OCC)C=C1)=O]	-5.5 ± 1.5%	
COC(=O)Nc1nc2ccc(C(=O)c3ccccc3)cc2[nH]1 [mebendazole, reference compound]		ligand efficiency (LE): 0.24; IC50 (TbSir2rp1, read-out: IC50): 121 µM; Hill coefficient (nH): 1.25
NC(=O)N1c2ccccc2C=Cc2ccccc21 [O=C(N)N1C2=CC=CC=C2C=CC3=CC=CC=C31]	2.1 ± 5%	
Cc1ccc(S(=O)(=O)n2cccc2)cc1 [O=S(N1C=CC=C1)(C2=CC=C(C)C=C2)=O]	-22 ± 5.8%	
C(=N\c1nnc(Cc2ccccc2)o1)/c1ccccc1	41 ± 12%	
Nc1ccc(C(=O)c2ccccc2)cc1 [Fragment 1.2]		ligand efficiency (LE): 0.37; IC50 (TbSir2rp1, read-out: IC50): 80.9 µM; Hill coefficient (nH): 0.72; inhibition mechanism (Lineweaver–Burk plot) (for both substrates, acetylated peptide and NAD+): competitive
Nc1ccc(S(N)(=O)=O)cc1 [O=S(C1=CC=C(N)C=C1)(N)=O]	-4.7 ± 2.3%	

Structure (SMILES)	inhibition at 500 µM [1]	other results
O=C1C(O)=C(Nc2ccc(F)cc2)C(=O)c2ccccc21	71 ± 23%	
O=C(/C=C/c1ccc(Cl)cc1)c1cccs1 [O=C(/C=C/C1=CC=C(Cl)C=C1)C2=CC=CS2]	32 ± 8.5%	
CCC1(c2ccccc2)C(=O)NC(=O)NC1=O [O=C(NC(C1(CC)C2=CC=CC=C2)=O)NC1=O]	2.7 ± 1.6%	
CN[C@@H](C)[C@H](O)c1ccccc1 [C[C@H](NC)[C@@H](C1=CC=CC=C1)O]	23 ± 6.4%	
Cc1ccc(S(=O)(=O)NN)cc1 [NNS(C1=CC=C(C)C=C1)(=O)=O]	53 ± 5.2%	
O=C1NCCn2cccc21 [O=C1C2=CC=CN2CCN1]	-35 ± 5%	
CC(=O)n1ncc2cc(Cl)ncc21 [ClC1=NC=C(N(C(C)=O)N=C2)C2=C1]	19 ± 9.9%	
NC(=O)c1cnccn1 [O=C(C1=NC=CN=C1)N]	22 ± 1.5%	
Nc1cc2nc(-c3cccc(C(F)(F)F)c3)cn2cn1	19 ± 28%	
CC(C)Cc1ccc(C(C)C(=O)O)cc1 (centres unmarked) [CC(C1=CC=C(CC(C)C)C=C1)C(O)=O]	-2.1 ± 0.21%	
CCC1(CC)C(=O)NC(=O)NC1=O [O=C(NC(C1(CC)CC)=O)NC1=O]	19 ± 6%	
CCOC(=O)c1c(C)oc2ncc(Br)cc12 [CC1=C(C(OCC)=O)C2=C(O1)N=CC(Br)=C2]	-7.1 ± 9.1%	
Cc1ccc(S(=O)(=O)n2ncc3ccccc32)cc1 [CC1=CC=C(S(N2N=CC3=C2C=CC=C3)(=O)=O)C=C1]	4 ± 30%	
CCOC(=O)c1ccc(N)cc1 [O=C(OCC)C1=CC=C(N)C=C1]	12 ± 1.4%	
NNC(=O)Cc1cccnc1 [O=C(NN)CC1=CN=CC=C1]	2.3 ± 22%	
CS(=O)(=O)Nc1cccc(-c2nc3ccccc3[nH]2)c1	-0.8 ± 4.1%	
CC(=O)Nc1ccccc1 [CC(NC1=CC=CC=C1)=O]	7.7 ± 21%	
Clc1cc2cn[nH]c2cn1 [Fragment 7]	61 ± 9.1%	inhibition at 500 µM [2]: 60.6 ± 9.1%
N[C@@H](Cc1ccc(O)c(O)c1)C(=O)O [O=C(O)[C@@H](N)CC1=CC=C(O)C(O)=C1]	-4 ± 4.1%	
O=C1NC(=O)C(c2ccccc2)(c2ccccc2)N1 [O=C1NC(C(C2=CC=CC=C2)(C3=CC=CC=C3)N1)=O]	52 ± 2.3%	
Cc1ncc([N+](=O)[O-])n1CCO [CC1=NC=C([N+]([O-])=O)N1CCO]	14 ± 3.1%	
CN(C)c1ccc(/C=N/c2nnc(-c3ccccc3)o2)cc1 [Fragment 4]	78 ± 2.3%	ligand efficiency (LE): 0.25; IC50 (TbSir2rp1, read-out: IC50): 94.4 µM; Hill coefficient (nH): 1.10; inhibition at 500 µM [2]: 78.4 ± 2.3%
C/C(=N\NC(N)=O)c1ccncc1 [C/C(C1=CC=NC=C1)=N\NC(N)=O]	31 ± 13%	
